Values joined by “and” are separate entries in the source; they are usually repeats but may differ in a detail not shown here. Equal values may be shown once.
Columns and labels:
[1] = test system: 3-enzyme system (S-ADH coupled to lactate dehydrogenase and pyruvate oxidase); test: S-ADH coupled to H2O2 formation electrochemical assay (3-enzyme system), interference compounds; type: biochemical, X. autotrophicus Py2; conditions: for interference with the acetone measurement (current response): Acetone plus 10 mM ethanol, 50 μM isopropanol or 50 μM isobutanol, data not shown
Description: Secondary alcohol dehydrogenase coupled to H2O2 formation electrochemical assay. […] Before measurements the electrode surface was polished using Al2O3 paste for 1 min. and then rinsed with deionized water, sonicated for 1 min. and rinsed with water again. The polished Pt electrode was then pretreated electrochemically by applying 10 cycles of 100 mV/s from +200 mV to +900 mV. All potentials were referenced versus a Ag/AgCl electrode (BAS part number MF-2078). Assays contained potassium phosphate (100 mM, pH 7.2), purified S-ADH (1 U/mL), NADH (201 μM), lactate (100 mM), lactate dehydrogenase (5 U/mL), pyruvate oxidase (4 U/mL), flavin adenine dinucleotide (0.01 mM), cocarboxylase (0.2 mM), in a total volume of 0.5 mL. […] After a 2 min. incubation period, the potential was stepped from open circuit to 350 mV.

S-ADH from C. boidinii = test: S-ADH spectrophotometric assay, C. boidinii S-ADH; type: biochemical, Candida boidinii; conditions: pH 7.6, 5 mM substrate; for Relative S-ADH Activity (%) C. boidinii, alcohol oxidation: alcohol oxidation rates, 0.2 mM NAD+, 2-propanol = 100; for Relative S-ADH Activity (%) C. boidinii, ketone reduction: ketone reduction rates, 0.2 mM NADH, acetone = 100
Description: Assays were performed in 2 mL quartz cuvettes and contained NAD(H) (0.2 mM), potassium phosphate buffer (25 mM), and a source of enzyme (cell-free extracts, column fractions, or purified enzyme) in a total reaction volume of 1 mL at pH 6.2 ([…]) at 30° C. Assays were pre-incubated for 1.5 min. at 30° C. with all assay components except substrate. […]

[2] = test system: S-ADH from X. autotrophicus strain Py2; test: Secondary alcohol dehydrogenase NADH oxidation spectrophotometric assay; type: biochemical, Xanthobacter autotrophicus strain Py2; conditions: for specific activity, alcohol oxidation: at pH 7.8; for inhibition of S-ADH activity: saturating acetone, alcohol at about 13-fold over the Km value for acetone, data not shown; for Relative S-ADH Activity (%) X. Py2, alcohol oxidation: alcohol oxidation rates, pH 7.6, 2.5 mM substrate, 0.2 mM NAD+, 2-propanol = 100, NA = no activity detected; for Relative S-ADH Activity (%) X. Py2, ketone reduction: ketone reduction rates, pH 6.2, 2.5 mM substrate, 0.2 mM NADH, acetone = 100
Description: (§1) Assays were performed in 2 mL quartz cuvettes and contained NAD(H) (0.2 mM), potassium phosphate buffer (25 mM), and a source of enzyme (cell-free extracts, column fractions, or purified enzyme) in a total reaction volume of 1 mL at pH 6.2 ([…]) at 30° C. Assays were pre-incubated for 1.5 min. at 30° C. with all assay components except substrate. Assays were initiated by addition of substrate (2.5 mM) and monitored over time by measuring the change in absorbance at 340 nm (∈340 of 6.22 mM^−1·cm^−1 for NADH).
Data analysis. Kinetic constants (Km and Vmax) were calculated by fitting initial rate data to the Michaelis-Menten equation and using the software KaleidaGraph Fourth Edition, (Synergy Software, Reading, Pa.).

S-ADH from strain IP-1 = test: S-ADH spectrophotometric assay, partially purified S-ADH of isolate IP-1; type: biochemical, isopropanol-grown bacterial strain TDCC IP-1; conditions: for Relative S-ADH Activity (%) IP-1, alcohol oxidation: alcohol oxidation rates, pH 7.6, 2.5 mM substrate, 0.2 mM NAD+, 2-propanol = 100, NA = no activity detected; for Relative S-ADH Activity (%) IP-1, ketone reduction: ketone reduction rates, pH 6.2, 2.5 mM substrate, 0.2 mM NADH, acetone = 100
Description: Protein purifications. […] Secondary alcohol dehydrogenase (S-ADH) from X. autotrophicus Py2 was purified via the following protocol. Cell-free extracts (380 mL) of isopropanol-grown X. autotrophicus Py2 (150 g) were prepared as described above, and applied to a 5×15 cm column of DEAE-Sepharose FAST FLOW (Diethylaminoethyl cross-linked agarose bead material; Catalog number 17-0709-10, Amersham Pharmacia Biotech, Piscataway, N.J.)) equilibrated in buffer A (25 mM MOPS (3-(N-morpholino)propanesulfonic acid), pH 7.6, 5% glycerol, 1 mM dithiothreitol) at a flow rate of 10 mL/min. After loading, the column was washed with […] buffer A and developed with a 2400 mL linear gradient of 90-290 mM KCl in buffer A. Fractions containing S-ADH activity were pooled and dialyzed against 2 L of 25 mM potassium phosphate (pH 6.2) containing 5% glycerol (buffer B) for 16 h at 4° C. […] After washing the column with 30 mL of buffer B, S-ADH was eluted with 20 mL of buffer A containing 10 mM NAD^+. Fractions containing S-ADH were then dialyzed against 2 L of buffer A for 16 h at 4° C., concentrated by ultrafiltration (using a YM30 ultrafiltration membrane; catalog no. 13722, from Millipore, Bedford, Mass.), and frozen in liquid nitrogen. Partially purified S-ADH from bacterial screen cultures was prepared as follows: cell-free extracts from 1 to 5 g of cell paste were prepared as described above and applied to a 5 mL HI TRAP Q column (quaternary, tetraethylammonium, cross-linked agarose bead material for use as an anion exchange matrix; catalog number 17-1153-01, Amersham Pharmacia Biotech) equilibrated in 100 mM MOPS, pH 7.6, containing 5% (v/v) glycerol (buffer C). The column was washed with 10 mL buffer C and developed with a 100 mL linear gradient of 0 to 100 mM NaCl in buffer C. Fractions containing S-ADH activity were pooled, concentrated to 0.5 mL using a 30 kDa MWCO (“molecular weight cut-off”) centrifugal membrane (catalog number UFV4BTK25, Millipore), and stored at −80° C.
as §1

[3] = test system: S-ADH purified from M vaccae strain JOB-5; conditions: M vaccae enzyme; alcohols oxidized, acetone reduced; cited from earlier work
[4] = test system: S-ADH from M. vaccae JOB-5; test: S-ADH spectrophotometric assay, propane-grown M. vaccae JOB-5; type: biochemical, Mycobacterium vaccae strain JOB-5; conditions: for Relative S-ADH Activity (%) JOB 5, alcohol oxidation: alcohol oxidation rates, pH 7.6, 2.5 mM substrate, 0.2 mM NAD+, 2-propanol = 100, NA = no activity detected; for Relative S-ADH Activity (%) JOB 5, ketone reduction: ketone reduction rates, pH 6.2, 2.5 mM substrate, 0.2 mM NADH, acetone = 100
Description: as §1

Row | Compound | interference with the acetone measurement (current response) [1] | Relative S-ADH Activity (%) C. boidinii, alcohol oxidation (S-ADH from C. boidinii) [%] | S-ADH activity in the presence of ethanol ([2]; 41 mM ethanol, equivalent to 500 ppm (v/v) gas phase ethanol) | specific activity, alcohol oxidation [2] | inhibition of S-ADH activity [2] | Relative S-ADH Activity (%) IP-1, alcohol oxidation (S-ADH from strain IP-1) [%] | Relative S-ADH Activity (%) X. Py2, alcohol oxidation [2] [%] | Km [3] [µM] | Relative S-ADH Activity (%) JOB 5, alcohol oxidation [4] [%] | current response relative to acetone ([1]; 50 μM butanone) | Relative S-ADH Activity (%) C. boidinii, ketone reduction (S-ADH from C. boidinii) [%] | Relative S-ADH Activity (%) X. Py2, ketone reduction [2] [%] | Relative S-ADH Activity (%) JOB 5, ketone reduction [4] [%] | Relative S-ADH Activity (%) IP-1, ketone reduction (S-ADH from strain IP-1) [%] | Km ([2]; reduction of acetone to isopropanol, NADH at fixed saturating concentration, read-out: apparent Km)
1 | CCO [Ethanol] | do not interfere | 9 | 82-85% | No activity | no inhibition was observed | 9 |  |  |  |  |  |  |  |  | 
2 | CC(C)O [2-Propanol] | do not interfere | 100 |  | 24±1.8 μmol alcohol oxidized min^−1mg^−1 protein |  | 100 | 100 | 50 | 100 |  |  |  |  |  | 
3 | CCCO [1-Propanol] |  | 9 |  | No activity | no inhibition was observed | 2 |  | 8100 | 9 |  |  |  |  |  | 
4 | CCC(C)=O [2-Butanone] |  |  |  |  |  |  |  |  |  | equivalent to 50 μM acetone | 175 | 170 | 213 | 192 | 
5 | CCC(C)O (centres unmarked) [2-Butanol] |  | 100 |  | 21±3.6 μmol alcohol oxidized min^−1mg^−1 protein and 37±1.1 μmol alcohol oxidized min^−1mg^−1 protein |  | 147 | 88 |  | 130 |  |  |  |  |  | 
6 | CC(C)=O [Acetone, acetone] |  |  |  |  |  |  |  | 300 |  |  | 100 | 100 | 100 | 100 | ~144 µM and 144 µM
